Measurements reported in the NIST ThermoML archive (doi:10.1021/je5001796).
± gives the expanded uncertainty stated by the source.

Assay: xn = mol fraction of the nth substance listed
Details: 101 kPa, Liquid, Vibrating tube method, x2 = 0.3333

NC(N)=O [urea] + C[N+](C)(C)CCO.[Cl-]
mass density (293.15 K): 1200.1 ± 0.4 kg/m3
mass density (303.15 K): 1194.5 ± 0.4 kg/m3
mass density (313.15 K): 1188.7 ± 0.4 kg/m3
mass density (323.15 K): 1183.1 ± 0.4 kg/m3
mass density (333.15 K): 1177.3 ± 0.4 kg/m3
mass density (343.15 K): 1170.8 ± 0.4 kg/m3
mass density (353.15 K): 1163.5 ± 0.4 kg/m3
mass density (363.15 K): 1155.4 ± 0.4 kg/m3
